The target of one assay is T1, MAGL (Mus musculus, UniProt O35678).
T1 construct: mouse brain membrane fraction or cell lysates for mouse assays; from tissue
T1 sequence (O35678 1-303): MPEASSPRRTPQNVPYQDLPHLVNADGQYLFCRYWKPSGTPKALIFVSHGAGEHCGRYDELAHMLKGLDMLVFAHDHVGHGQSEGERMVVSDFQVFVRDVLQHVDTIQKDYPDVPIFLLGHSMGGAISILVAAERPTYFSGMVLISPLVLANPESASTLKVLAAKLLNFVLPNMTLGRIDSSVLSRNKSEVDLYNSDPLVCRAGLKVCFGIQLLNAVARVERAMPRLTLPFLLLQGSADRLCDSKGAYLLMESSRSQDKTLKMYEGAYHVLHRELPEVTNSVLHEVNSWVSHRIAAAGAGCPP
The experiment in a line: In vitro competitive activity-based protein profiling, mouse MAGL. In kind it is biochemical. The following applies: for inhibition at 1 µM: read-out: MAGL % inh. 1 μM (mouse). The essentials:
(§1)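 Activity measured as fluorescent gel-band intensity of MAGL and FAAH after SDS-PAGE. Before labelling with FP-Rh or HT-01 (30 min, 37 °C), proteomes at 1.0 mg/mL (mouse brain membrane or lysates; human prefrontal cortex or cell membranes) were exposed to varying inhibitor concentrations for 30 min at 37 °C.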

The next assay has as its target T2, FAAH (Mus musculus, UniProt O08914).
T2 construct: mouse brain membrane fraction or cell lysates for mouse assays; from tissue
T2 sequence (O08914 1-579): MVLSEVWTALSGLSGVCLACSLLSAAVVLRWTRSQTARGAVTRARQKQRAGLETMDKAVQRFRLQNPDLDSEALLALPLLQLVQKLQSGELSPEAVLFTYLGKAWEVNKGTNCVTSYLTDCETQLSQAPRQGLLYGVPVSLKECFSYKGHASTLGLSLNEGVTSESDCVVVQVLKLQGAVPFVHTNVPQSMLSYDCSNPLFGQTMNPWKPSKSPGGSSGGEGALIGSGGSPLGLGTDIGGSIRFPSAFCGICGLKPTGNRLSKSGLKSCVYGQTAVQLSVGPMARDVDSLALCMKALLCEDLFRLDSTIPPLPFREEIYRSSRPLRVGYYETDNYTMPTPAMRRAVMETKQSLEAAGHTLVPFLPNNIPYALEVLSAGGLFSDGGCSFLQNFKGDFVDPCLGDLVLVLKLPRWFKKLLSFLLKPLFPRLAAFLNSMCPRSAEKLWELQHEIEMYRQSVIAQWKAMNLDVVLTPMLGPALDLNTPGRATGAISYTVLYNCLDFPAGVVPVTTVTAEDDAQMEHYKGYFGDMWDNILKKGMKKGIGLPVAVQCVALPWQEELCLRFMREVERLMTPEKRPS
The experiment in a line: In vitro competitive activity-based protein profiling, mouse FAAH. In kind it is biochemical. The following applies: for inhibition at 1 µM: read-out: FAAH % inh. 1 μM (mouse). The essentials: as §1

This passage reports inhibition and IC50 results from patent US10385057B2, “Pyrazole compounds and methods of making and using same” (Lundbeck La Jolla Research Center, Inc., priority 2015, dated 2019).

Broadly, the IC50 is the concentration that gives 50% inhibition. High values mean a need for much substance, low ones inhibition by little substance.

In the case of `CN(Cc1ccccc1Cl)[C@H]1C[C@@H]2CN(C(=O)n3cc(C(=O)N4CCN(C5CC5)CC4)cn3)C[C@@H]2C1` [Example 95, (trans-5-((2-chlorobenzyl)(methyl)amino)hexahydrocyclopenta[c]pyrrol-2(1H)-yl)(4-(4-cyclopropylpiperazine-1-carbonyl)-1H-pyrazol-1-yl)methanone], the inhibition at 1 µM is at least 75% on MAGL and 0 to 25% on FAAH.

As to `CN(Cc1ccc(C(F)(F)F)cc1)[C@@H]1C[C@@H]2CN(C(=O)n3cc(C(=O)N4CCCC4)cn3)C[C@@H]2C1` [Example 97, (cis-5-(methyl(4-(trifluoromethyl)benzyl)amino)hexahydrocyclopenta[c]pyrrol-2(1H)-yl)(4-(pyrrolidine-1-carbonyl)-1H-pyrazol-1-yl)methanone], the results for the inhibition at 1 µM on MAGL and on FAAH were 50 to 75% and at least 75%, respectively.

As for `CN(Cc1ccc(C(F)(F)F)cc1)[C@@H]1C[C@@H]2CN(C(=O)n3cc(C(=O)N4CCN(C5CC5)CC4)cn3)C[C@@H]2C1` [Example 98, (4-cyclopropylpiperazin-1-yl)(1-(cis-5-(methyl(4-(trifluoromethyl)benzyl)amino)octahydrocyclopenta[c]pyrrole-2-carbonyl)-1H-pyrazol-4-yl)methanone], the inhibition at 1 µM is at least 75% on MAGL and 25 to 50% on FAAH.

Regarding `O=C(N1CC2CN(Cc3ccc(Cl)cc3N3CCOCC3)CC2C1)n1cc(Cl)cn1` (stereo not drawn) [Example 99, (4-chloro-1H-pyrazol-1-yl)(5-(4-chloro-2-morpholinobenzyl)hexahydropyrrolo[3,4-c]pyrrol-2(1H)-yl)methanone], at MAGL, the half-inhibitory concentration (IC50) is at most 100 nM and the inhibition at 1 µM is at least 75%. Besides, at FAAH, the IC50 is at most 100 nM and the inhibition at 1 µM was at least 75%.

As to `O=C(N1CC2CN(Cc3ccc(F)cc3N3CCOCC3)CC2C1)n1cc(Cl)cn1` (stereo not drawn) [Example 100, (4-chloro-1H-pyrazol-1-yl)(5-(4-fluoro-2-morpholinobenzyl)hexahydropyrrolo[3,4-c]pyrrol-2(1H)-yl)methanone], the half-maximal inhibitory concentration (IC50) on MAGL was at most 100 nM; at FAAH it was 100 to 1000 nM. In addition, the inhibition at 1 µM on MAGL and on FAAH was at least 75% in each case.

For `O=C(N1CC2CN(Cc3ccc(Cl)cc3N3CCCC3)CC2C1)n1cc(Cl)cn1` (stereo not drawn) [Example 101, (4-chloro-1H-pyrazol-1-yl)(5-(4-chloro-2-(pyrrolidin-1-yl)benzyl)hexahydropyrrolo[3,4-c]pyrrol-2(1H)-yl)methanone], the figures for the IC50 on MAGL and at FAAH were at most 100 nM and 100 to 1000 nM, respectively. Moreover, the inhibition at 1 µM on MAGL and at FAAH was at least 75% throughout.

`CC(=O)N1CCN(c2cc(Cl)ccc2CN2CC3CN(C(=O)n4cc(Cl)cn4)CC3C2)CC1` (stereo not drawn) [Example 102, 1-(4-(5-chloro-2-((5-(4-chloro-1H-pyrazole-1-carbonyl)hexahydropyrrolo[3,4-c]pyrrol-2(1H)-yl)methyl)phenyl)piperazin-1-yl)ethan-1-one]: the inhibition at 1 µM on MAGL and on FAAH was at least 75% in each case.

For the compound `O=C(N1CC2CN(Cc3ccc(F)cc3N3CCCC3)CC2C1)n1cc(Cl)cn1` (stereo not drawn) [Example 103, (4-chloro-1H-pyrazol-1-yl)(5-(4-fluoro-2-(pyrrolidin-1-yl)benzyl)hexahydropyrrolo[3,4-c]pyrrol-2(1H)-yl)methanone], on MAGL, the IC50 was at most 100 nM and the inhibition at 1 µM was at least 75%. Moreover, at FAAH, the IC50 was at most 100 nM and the inhibition at 1 µM was at least 75%.

For the compound `CC1COCCN1c1cc(F)ccc1CN1CC2CN(C(=O)n3cc(Cl)cn3)CC2C1` (stereo not drawn) [Example 104, (4-chloro-1H-pyrazol-1-yl)(5-(4-fluoro-2-(3-methylmorpholino)benzyl)hexahydropyrrolo[3,4-c]pyrrol-2(1H)-yl)methanone], the inhibition at 1 µM on MAGL and at FAAH was at least 75% in each case.

Regarding `CC1COCCN1c1cc(Cl)ccc1CN1CC2CN(C(=O)n3cc(Cl)cn3)CC2C1` (stereo not drawn) [Example 105, (4-chloro-1H-pyrazol-1-yl)(5-(4-chloro-2-(3-methylmorpholino)benzyl)hexahydropyrrolo[3,4-c]pyrrol-2(1H)-yl)methanone], the inhibition at 1 µM at MAGL and at FAAH was at least 75% throughout.

As to `CC(C)c1ccc(CN2CC3CN(C(=O)n4cc(Cl)cn4)CC3C2)c(N2CCOCC2)c1` (stereo not drawn) [Example 106, (4-chloro-1H-pyrazol-1-yl)(5-(4-isopropyl-2-morpholinobenzyl)hexahydropyrrolo[3,4-c]pyrrol-2(1H)-yl)methanone], the figures for the IC50 at MAGL and at FAAH were at most 100 nM and 1000 to 10000 nM, respectively. The inhibition at 1 µM is at least 75% on MAGL and 50 to 75% at FAAH.

Regarding `CC(=O)N1CCN(c2cc(F)ccc2CN2CC3CN(C(=O)n4cc(Cl)cn4)CC3C2)CC1` (stereo not drawn) [Example 107, 1-(4-(2-((5-(4-chloro-1H-pyrazole-1-carbonyl)hexahydropyrrolo[3,4-c]pyrrol-2(1H)-yl)methyl)-5-fluorophenyl)piperazin-1-yl)ethan-1-one], the IC50 on MAGL is at most 100 nM; on FAAH, 100 to 1000 nM. Besides, the inhibition at 1 µM on MAGL and on FAAH was at least 75% throughout.

`CC(C)c1ccc(CN2CC3CN(C(=O)n4cc(Cl)cn4)CC3C2)c(N2CCCC2)c1` (stereo not drawn) [Example 108, (4-chloro-1H-pyrazol-1-yl)(5-(4-isopropyl-2-(pyrrolidin-1-yl)benzyl)hexahydropyrrolo[3,4-c]pyrrol-2(1H)-yl)methanone]: at MAGL, the IC50 was 100 to 1000 nM and the inhibition at 1 µM was at least 75%. At FAAH, the concentration for half-maximal inhibition (IC50) lay within 1000 to 10000 nM and the inhibition at 1 µM is 50 to 75%.

Regarding `CC(=O)N1CCN(c2cc(C(C)C)ccc2CN2CC3CN(C(=O)n4cc(Cl)cn4)CC3C2)CC1` (stereo not drawn) [Example 109, 1-(4-(2-((5-(4-chloro-1H-pyrazole-1-carbonyl)hexahydropyrrolo[3,4-c]pyrrol-2(1H)-yl)methyl)-5-isopropylphenyl)piperazin-1-yl)ethan-1-one], at MAGL, the concentration for half-maximal inhibition (IC50) is at most 100 nM and the inhibition at 1 µM is at least 75%. In addition, at FAAH, the half-maximal inhibitory concentration (IC50) lay within 1000 to 10000 nM and the inhibition at 1 µM lay within 0 to 25%.

In the case of `O=C(N1CC2CN(Cc3ccc(C(F)(F)F)cc3N3CCCC3)CC2C1)n1cc(Cl)cn1` (stereo not drawn) [Example 110, (4-chloro-1H-pyrazol-1-yl)(5-(2-(pyrrolidin-1-yl)-4-(trifluoromethyl)benzyl)hexahydropyrrolo[3,4-c]pyrrol-2(1H)-yl)methanone], at MAGL, the half-inhibitory concentration (IC50) was at most 100 nM and the inhibition at 1 µM was at least 75%. Further, on FAAH, the IC50 is 100 to 1000 nM and the inhibition at 1 µM was at least 75%.

Turning to `O=C(N1CC2CN(Cc3ccc(Cl)cc3N3CCC4(CCOCC4)C3)CC2C1)n1cc(Cl)cn1` (stereo not drawn) [Example 111, (4-chloro-1H-pyrazol-1-yl)(5-(4-chloro-2-(8-oxa-2-azaspiro[4.5]decan-2-yl)benzyl)hexahydropyrrolo[3,4-c]pyrrol-2(1H)-yl)methanone], the IC50 on MAGL was at most 100 nM; at FAAH, 1000 to 10000 nM. For the same compound, the inhibition at 1 µM at MAGL and on FAAH was at least 75% throughout.

Turning to `O=C(N1CCC2(CCN(Cc3cccc(Cl)c3)C2)C1)n1cc(Cl)cn1` (stereo not drawn) [Example 113, (4-chloro-1H-pyrazol-1-yl)(7-(3-chlorobenzyl)-2,7-diazaspiro[4.4]nonan-2-yl)methanone], the results for the IC50 at MAGL and at FAAH were 100 to 1000 nM and at most 100 nM, respectively. Besides, the inhibition at 1 µM on MAGL and at FAAH was at least 75% each time.

For `O=C(N1CCC2(CCN(Cc3ccccc3)C2)C1)n1cc(Cl)cn1` (stereo not drawn) [Example 114, (7-benzyl-2,7-diazaspiro[4.4]nonan-2-yl)(4-chloro-1H-pyrazol-1-yl)methanone], the inhibition at 1 µM at MAGL was 50 to 75%; on FAAH it was at least 75%.

In the case of `O=C(N1CCC2(CCN(Cc3ccc(Cl)cc3)C2)C1)n1cc(Cl)cn1` (stereo not drawn) [Example 115, (4-chloro-1H-pyrazol-1-yl)(7-(4-chlorobenzyl)-2,7-daizaspiro[4.4]nonan-2-yl)methanone], the IC50 at MAGL and on FAAH was 100 to 1000 nM in each case. Besides, the inhibition at 1 µM on MAGL and at FAAH was at least 75% throughout.

For the compound `O=C(N1CC2CN(Cc3cccc(Cl)c3)CC2C1)n1cc(Cl)cn1` (stereo not drawn) [Example 117, (4-chloro-1H-pyrazol-1-yl)(5-(3-chlorobenzyl)hexahydropyrrolo[3,4-c]pyrrol-2(1H)-yl)methanone], at MAGL, the IC50 was at most 100 nM and the inhibition at 1 µM is at least 75%. Besides, on FAAH, the IC50 is at most 100 nM and the inhibition at 1 µM is at least 75%.
